Source: patent publication US11161846B2, “Substituted pyrazolo[4,3-b]pyridines and their use as GluN2B receptor modulators” (JANSSEN PHARMACEUTICA NV, priority 2019, dated 2021)

These compounds were tested against T1, human GluN1/GluN2B NMDA receptors (Homo sapiens, UniProt Q05586+Q13224) (assay: Calcium flux (FLIPR) assay on cloned human NR1/GluN2B ion channels expressed in mammalian cells, standard assay). Settings: glutamate ~EC40 and 10 μM glycine, stable cell line with Tet-On induced expression.
T1 construct: expressed in transfected cells
Format: cell-based
Method in brief: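 Tet-On-induced stable mammalian line loaded with Calcium 5 dye (0.5 mM MgCl2 loading buffer), then assayed in pH 7.4 buffer with 137 mM NaCl, 4 mM KCl, 2 mM CaCl2. Compound was added for 5 min, then glutamate (~EC40) plus 10 µM glycine for 5 min. FLIPR fluorescence was normalized to control wells.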

T1 sequence (Q13224 27-1484, other chains not shown): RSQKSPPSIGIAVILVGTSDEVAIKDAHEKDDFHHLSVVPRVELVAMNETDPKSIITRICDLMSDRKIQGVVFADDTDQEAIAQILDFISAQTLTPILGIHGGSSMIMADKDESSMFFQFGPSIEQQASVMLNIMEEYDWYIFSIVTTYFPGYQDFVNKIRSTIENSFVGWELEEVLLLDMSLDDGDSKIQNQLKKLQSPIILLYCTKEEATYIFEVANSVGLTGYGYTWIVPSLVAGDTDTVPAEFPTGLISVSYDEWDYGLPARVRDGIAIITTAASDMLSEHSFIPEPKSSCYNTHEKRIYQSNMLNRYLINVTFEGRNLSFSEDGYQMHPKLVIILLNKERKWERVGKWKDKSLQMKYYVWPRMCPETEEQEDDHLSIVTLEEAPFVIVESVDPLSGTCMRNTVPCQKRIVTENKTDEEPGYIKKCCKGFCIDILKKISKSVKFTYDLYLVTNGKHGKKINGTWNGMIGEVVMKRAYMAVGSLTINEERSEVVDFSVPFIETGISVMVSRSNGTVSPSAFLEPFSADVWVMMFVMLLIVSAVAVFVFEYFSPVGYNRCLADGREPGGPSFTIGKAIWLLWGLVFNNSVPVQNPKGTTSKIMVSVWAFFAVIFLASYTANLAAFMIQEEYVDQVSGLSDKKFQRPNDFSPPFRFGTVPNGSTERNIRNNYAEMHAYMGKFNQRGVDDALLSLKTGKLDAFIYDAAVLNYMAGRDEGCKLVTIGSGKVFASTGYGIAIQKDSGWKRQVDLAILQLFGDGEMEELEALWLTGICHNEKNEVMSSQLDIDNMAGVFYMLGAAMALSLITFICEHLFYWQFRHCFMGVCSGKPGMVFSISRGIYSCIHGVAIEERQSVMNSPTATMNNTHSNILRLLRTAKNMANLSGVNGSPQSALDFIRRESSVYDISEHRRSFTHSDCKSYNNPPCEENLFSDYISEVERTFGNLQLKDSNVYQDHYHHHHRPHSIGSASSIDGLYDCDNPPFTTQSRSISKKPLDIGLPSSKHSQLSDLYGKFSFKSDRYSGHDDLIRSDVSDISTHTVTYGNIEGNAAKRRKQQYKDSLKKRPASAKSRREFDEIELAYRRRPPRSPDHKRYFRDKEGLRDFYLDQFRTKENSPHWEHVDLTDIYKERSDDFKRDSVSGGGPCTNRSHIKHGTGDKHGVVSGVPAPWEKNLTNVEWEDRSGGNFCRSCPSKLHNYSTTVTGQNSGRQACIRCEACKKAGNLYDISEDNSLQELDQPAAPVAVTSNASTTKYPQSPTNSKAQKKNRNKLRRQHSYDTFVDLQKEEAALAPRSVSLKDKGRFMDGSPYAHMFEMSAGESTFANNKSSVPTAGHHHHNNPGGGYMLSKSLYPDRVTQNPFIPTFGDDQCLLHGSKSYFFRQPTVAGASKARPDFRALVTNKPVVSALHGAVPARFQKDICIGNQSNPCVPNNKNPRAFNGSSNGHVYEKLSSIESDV

| SMILES | IC50 [nM] |
| --- | --- |
| CCC(=O)Cn1ncc2ncc(-c3ccc(F)c(C(C)(F)F)c3)cc21 [Example 37, 1-[6-[3-(1,1-Difluoroethyl)-4-fluoro-phenyl]pyrazolo[4,3-b]pyridin-1-yl]butan-2-one] | 41 |
| OC(Cn1ncc2ncc(-c3ccc(F)c(C(F)F)c3)cc21)C1CC1 (racemic) [Example 104, (RS)-1-Cyclopropyl-2-(6-(3-(difluoromethyl)-4-fluorophenyl)-1H-pyrazolo[4,3-b]pyridin-1-yl)ethan-1-ol] | 165 |
| CCC(O)Cn1ncc2ncc(-c3ccc(Cl)c(OC(F)F)c3)cc21 (racemic) [Example 93, (RS)-1-[6-[4-Chloro-3-(difluoromethoxy)phenyl]pyrazolo[4,3-b]pyridin-1-yl]butan-2-ol] | 415 |
| Fc1ccc(-c2cnc3cnn(CC4CCOC4)c3c2)cc1C(F)F (racemic) [Example 113, (RS)-6-[3-(Difluoromethyl)-4-fluoro-phenyl]-1-(tetrahydrofuran-3-ylmethyl)pyrazolo[4,3-b]pyridine] | 23 |
| CC[S+]([O-])Cn1ncc2ncc(-c3cccc(F)c3)cc21 (racemic) [Example 80, (RS)-1-(Ethylsulfinylmethyl)-6-(3-fluorophenyl)pyrazolo[4,3-b]pyridine] | 823 |
| Cc1cc(-c2cnc3cnn(CC(=O)C4CCC4)c3c2)ccc1F [Example 70, 1-Cyclobutyl-2-[6-(4-fluoro-3-methyl-phenyl)pyrazolo[4,3-b]pyridin-1-yl]ethanone] | 63 |
| CC(C)C(=O)Cn1ncc2ncc(-c3cccc(C(F)F)c3)cc21 [Example 47, 1-[6-[3-(Difluoromethyl)phenyl]pyrazolo[4,3-b]pyridin-1-yl]-3-methyl-butan-2-one] | 23 |
| CN1C(=O)CCC1Cn1ncc2ncc(-c3ccc(F)c(OC(F)F)c3)cc21 (racemic) [Example 114, (RS)-5-((6-(3-(Difluoromethoxy)-4-fluorophenyl)-1H-pyrazolo[4,3-b]pyridin-1-yl)methyl)-1-methylpyrrolidin-2-one] | > 3000 |
| CCC(=O)Cn1ncc2ncc(-c3cccc(C(C)(F)F)c3)cc21 [Example 31, 1-[6-[3-(1,1-Difluoroethyl)phenyl]pyrazolo[4,3-b]pyridin-1-yl]butan-2-one] | 35 |
| CN1CC(Cn2ncc3ncc(-c4ccc(F)c(OC(F)F)c4)cc32)OC1=O (racemic) [Example 128, (RS)-5-((6-(3-(Difluoromethoxy)-4-fluorophenyl)-1H-pyrazolo[4,3-b]pyridin-1-yl)methyl)-3-methyloxazolidin-2-one] | 165 |
| O=C(Cn1ncc2ncc(-c3ccc(F)c(C(F)F)c3)cc21)c1cnccn1 [Example 142, 2-(6-(3-(Difluoromethyl)-4-fluorophenyl)-1H-pyrazolo[4,3-b]pyridin-1-yl)-1-(pyrazin-2-yl)ethan-1-one] | 74 |
| CC[S+]([O-])Cn1ncc2ncc(-c3ccc(Cl)c(OC(F)F)c3)cc21 (racemic) [Example 87, (RS)-6-[4-Chloro-3-(difluoromethoxy)phenyl]-1-(ethylsulfinylmethyl)pyrazolo[4,3-b]pyridine] | 109 |
| COC(Cn1ncc2ncc(-c3cc(F)c(F)c(F)c3)cc21)C1CC1 (racemic) [Example 11, (R/S)-1-(2-Cyclopropyl-2-methoxy-ethyl)-6-(3,4,5-trifluorophenyl)pyrazolo[4,3-b]pyridine] | 1780 |
| CC(=O)Cn1ncc2ncc(-c3ccc(F)c(C(F)F)c3)cc21 [Example 23, 1-[6-[3-(Difluoromethyl)-4-fluoro-phenyl]pyrazolo[4,3-b]pyridin-1-yl]propan-2-one] | 14 |
| CCC(O)Cn1ncc2ncc(-c3ccc(F)c(C(F)F)c3)cc21 (racemic) [Example 5, (RS)-1-[6-[3-(Difluoromethyl)-4-fluoro-phenyl]pyrazolo[4,3-b]pyridin-1-yl]butan-2-ol] | 48 |
| CCN1C[C@@H](Cn2ncc3ncc(-c4ccc(F)c(C(F)F)c4)cc32)OC1=O [Example 132, (S)-5-[[6-[3-(Difluoromethyl)-4-fluoro-phenyl]pyrazolo[4,3-b]pyridin-1-yl]methyl]-3-ethyl-oxazolidin-2-one] | 1430 |
| CC[S+]([O-])Cn1ncc2ncc(-c3ccc(F)c(C(F)F)c3)cc21 (single isomer, unassigned) [Example 84, (S*)-6-(3-(Difluoromethyl)-4-fluorophenyl)-1-((ethylsulfinyl)methyl)-1H-pyrazolo[4,3-b]pyridine] | 29 |
| Cc1cccc(-c2cnc3cnn(CC(=O)C4CC4)c3c2)c1F [Example 71, 1-Cyclopropyl-2-[6-(2-fluoro-3-methyl-phenyl)pyrazolo[4,3-b]pyridin-1-yl]ethanone] | 7 |
| CCC(=O)Cn1ncc2ncc(-c3ccc(F)c(C(F)(F)F)c3)cc21 [Example 39, 1-[6-[4-Fluoro-3-(trifluoromethyl)phenyl]pyrazolo[4,3-b]pyridin-1-yl]butan-2-one] | 75 |
| CCC(=O)Cn1nc(F)c2ncc(-c3ccc(F)c(F)c3)cc21 [Example 35, 1-[6-(3,4-Difluorophenyl)-3-fluoro-pyrazolo[4,3-b]pyridin-1-yl]butan-2-one] | 5 |

| SMILES | IC50 [nM] |
| --- | --- |
| CC[S+]([O-])Cn1ncc2ncc(-c3ccc(F)c(C(F)F)c3)cc21 (racemic) [Example 83, (RS)-6-(3-(Difluoromethyl)-4-fluorophenyl)-1-((ethylsulfinyl)methyl)-1H-pyrazolo[4,3-b]pyridine] | 34 |
| FC(F)(F)c1cccc(-c2cnc3cnn(CC4CCCO4)c3c2)c1 (racemic) [Example 111, (RS)-1-(Tetrahydrofuran-2-ylmethyl)-6-[3-(trifluoromethyl)phenyl]pyrazolo[4,3-b]pyridine] | 93 |
| O=C(Cn1ncc2ncc(-c3ccc(F)c(F)c3)cc21)C1CC1 [Example 65, 1-Cyclopropyl-2-[6-(3,4-difluorophenyl)pyrazolo[4,3-b]pyridin-1-yl]ethanone] | 13 |
| CC[S+]([O-])Cn1ncc2ncc(-c3ccc(F)c(F)c3)cc21 (racemic) [Example 82, (RS) 6-(3,4-Difluorophenyl)-1-(ethylsulfinylmethyl)pyrazolo[4,3-b]pyridine] | 893 |
| Cc1cc(F)ccc1-c1cnc2cnn(CC(=O)C3CC3)c2c1 [Example 72, 1-Cyclopropyl-2-[6-(4-fluoro-2-methyl-phenyl)pyrazolo[4,3-b]pyridin-1-yl]ethanone] | 199 |
| O=C(Cn1ncc2ncc(-c3cccc(OC(F)(F)F)c3)cc21)C1CC1 [Example 63, 1-Cyclopropyl-2-[6-[3-(trifluoromethoxy)phenyl]pyrazolo[4,3-b]pyridin-1-yl]ethanone] | 31 |
| CC(C)C(=O)Cn1ncc2ncc(-c3cccc(C(F)(F)F)c3F)cc21 [Example 50, 1-[6-[2-Fluoro-3-(trifluoromethyl)phenyl]pyrazolo[4,3-b]pyridin-1-yl]-3-methyl-butan-2-one] | 76 |
| CC(F)(F)c1cc(-c2cnc3cnn(CC4CNC(=O)O4)c3c2)ccc1F (racemic) [Example 127, (RS)-5-[[6-[3-(1,1-Difluoroethyl)-4-fluoro-phenyl]pyrazolo[4,3-b]pyridin-1-yl]methyl]oxazolidin-2-one] | 973 |
| O=C(Cn1ncc2ncc(-c3ccc(Cl)s3)cc21)C1CC1 [Example 55, 2-[6-(5-Chloro-2-thienyl)pyrazolo[4,3-b]pyridin-1-yl]-1-cyclopropyl-ethanone] | 8 |
| ON=C(Cn1ncc2ncc(-c3ccc(F)c(C(F)F)c3)cc21)C1CC1 (mixture of isomers) [Example 107, (E/Z)-1-Cyclopropyl-2-[6-[3-(difluoromethyl)-4-fluoro-phenyl]pyrazolo[4,3-b]pyridin-1-yl]ethanone oxime] | 65 |
| CCC(O)Cn1ncc2ncc(-c3ccc(F)c(F)c3)cc21 (racemic) [Example 91, (RS)-1-[6-(3,4-Difluorophenyl)pyrazolo[4,3-b]pyridin-1-yl]butan-2-ol] | 526 |
| CC(C)C(Cn1ncc2ncc(-c3cccc(C(F)(F)F)c3)cc21)=NO (mixture of isomers) [Example 6, (E/Z)-3-Methyl-1-[6-[3-(trifluoromethyl)phenyl]pyrazolo[4,3-b]pyridin-1-yl]butan-2-one oxime] | 2480 |
| Cc1cc(-c2cnc3cnn(CC(=O)C4CC4)c3c2)ccc1F [Example 69, 1-Cyclopropyl-2-[6-(4-fluoro-3-methyl-phenyl)pyrazolo[4,3-b]pyridin-1-yl]ethanone] | 19 |
| CN1CC[C@@H](Cn2ncc3ncc(-c4ccc(F)c(C(F)F)c4)cc32)C1=O [Example 117, (S)-3-[[6-[3-(Difluoromethyl)-4-fluoro-phenyl]pyrazolo[4,3-b]pyridin-1-yl]methyl]-1-methyl-pyrrolidin-2-one] | 1210 |
| CON=C(Cn1ncc2ncc(-c3cccc(C(F)(F)F)c3)cc21)C(C)C (mixture of isomers) [Example 105, (E/Z)-N-Methoxy-3-methyl-1-[6-[3-(trifluoromethyl)phenyl]pyrazolo[4,3-b]pyridin-1-yl]butan-2-imine] | 5250 |
| O=C(Cn1ncc2ncc(-c3ccc(F)c(C(F)F)c3)cc21)c1cccs1 [Example 137, 2-[6-[3-(Difluoromethyl)-4-fluoro-phenyl]pyrazolo[4,3-b]pyridin-1-yl]-1-(2-thienyl)ethanone] | 36 |
| O=C(Cn1ncc2ncc(-c3cccc(F)c3F)cc21)C1CC1 [Example 64, 1-Cyclopropyl-2-[6-(2,3-difluorophenyl)pyrazolo[4,3-b]pyridin-1-yl]ethanone] | 37 |
| Fc1ccc(-c2cnc3cnn(CC4CCCO4)c3c2)cc1OC(F)F (racemic) [Example 112, (RS)-6-[3-(Difluoromethoxy)-4-fluoro-phenyl]-1-(tetrahydrofuran-2-ylmethyl)pyrazolo[4,3-b]pyridine] | 113 |
| O=C1NCC(Cn2ncc3ncc(-c4ccc(F)c(C(F)F)c4)cc32)O1 (racemic) [Example 20, (RS)-5-[[6-[3-(Difluoromethyl)-4-fluoro-phenyl]pyrazolo[4,3-b]pyridin-1-yl]methyl]oxazolidin-2-one] | 197 |
